Assay results: PubChem BioAssay AID1648 (Sanford-Burnham Center for Chemical Genomics, 2009)
Calls of active or inactive are those of the source. How the calls were made is not given here.

Target: Serine/threonine-protein kinase mTOR (Homo sapiens) (UniProt P42345)
Assay: binders of mTOR FRB domain, biophysical, NMR (AID 1648)
Conditions: NMR binding to FRB domain, chemical shift

Sequence of Serine/threonine-protein kinase mTOR (Homo sapiens) (P42345 2015-2114): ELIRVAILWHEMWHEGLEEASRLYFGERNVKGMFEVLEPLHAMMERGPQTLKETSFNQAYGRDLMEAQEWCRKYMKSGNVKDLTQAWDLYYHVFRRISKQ

Row | Structure (SMILES) | Kd
1 | CCc1ccccc1NC(=O)c1ccoc1C | > 4 mM (inactive)
2 | C=CCn1c(N)c(C(=O)N2CCOCC2)sc1=S | > 4 mM (inactive)
3 | O=C(/C=C/c1ccccc1)NC1CCS(=O)(=O)C1 (centres undefined) | > 4 mM (inactive)
4 | O=c1c(O)c(-c2ccc(O)cc2O)oc2cc(O)cc(O)c12 | > 4 mM (inactive)
5 | Cc1noc(C)c1CSc1nc2ccccc2[nH]1 | > 4 mM (inactive)
6 | Cc1nc(-c2cccc(-c3noc(C)n3)c2)no1 | > 4 mM (inactive)
7 | CC(=O)c1c(O)cc(C)n(Cc2ccccc2)c1=O | > 4 mM (inactive)
8 | S=c1oc(-c2ccncc2)nn1CCc1ccncc1 | > 4 mM (inactive)
9 | Cc1csc2nc(=O)c3ccccc3n12 | > 4 mM (inactive)
10 | Cc1c(N=CN2CCOCC2)c(=O)n(C)c(=O)n1C | > 4 mM (inactive)
11 | Cc1cc(C(=O)Nc2nnc(C(F)(F)F)s2)no1 | > 4 mM (inactive)
12 | Nc1nc(-c2ccccc2)cc(=O)[nH]1 | > 4 mM (inactive)
13 | COc1ccc(/C=C2/C(=O)N=C(N)N2C)cc1OC | > 4 mM (inactive)
14 | CC(=O)Nc1ccc(S(N)(=O)=O)cc1 | > 4 mM (inactive)
15 | Cc1nc(SCC(=O)c2c[nH]c3ccccc23)n[nH]1 | > 4 mM (inactive)
16 | Nc1[nH]c(=S)ncc1S(=O)(=O)c1ccccc1 | > 4 mM (inactive)
17 | NC(=O)C1(c2ccccc2)CCOCC1 | > 4 mM (inactive)
18 | Cc1nn(C)c2sc(CO)cc12 | > 4 mM (inactive)
19 | Cc1cc(N2CCCC2=O)c(N)cc1N | > 4 mM (inactive)
20 | CSc1nc2cc(F)c(F)cc2n1C | > 4 mM (inactive)
21 | CC(C1OC(C)(C)C(O)C1O)[C@@H]1CC[C@]2(C)C3=CCC4C(C)(C)C(=O)CC[C@]4(C)C3CC[C@@]12C (some centres undefined) | > 4 mM (inactive)
22 | Cc1cc(C)n(C/C=C/Cn2nc(C)cc2C)n1 | > 4 mM (inactive)
23 | O=c1cnnc(N2CCCCC2)[nH]1 | > 4 mM (inactive)
24 | NC(=O)NC(=O)Nc1ccc(Cl)cc1 | > 4 mM (inactive)
25 | CSc1ccccc1NC(=O)c1cnccn1 | > 4 mM (inactive)

Row | Structure (SMILES) | Kd
26 | Cc1nnsc1C(=O)Nc1ccccc1[N+](=O)[O-] | > 4 mM (inactive)
27 | CCc1c(C(=O)N2CCOCC2)csc1C | > 4 mM (inactive)
28 | Nc1nncn1C(=O)c1ccccc1Cl | > 4 mM (inactive)
29 | Cc1nnc(NCCO)[nH]c1=O | > 4 mM (inactive)
30 | O=C(/C=C/c1ccco1)NC1=NCCS1 | > 4 mM (inactive)
31 | O=C1NC(=S)N/C1=C\c1ccccc1F | > 4 mM (inactive)
32 | O=c1[nH]c2sc3c(c2c2ncnn12)CCCC3 | > 4 mM (inactive)
33 | Nc1ccc(CN2CCS(=O)(=O)CC2)cc1 | > 4 mM (inactive)
34 | CC(=O)Nc1nc(C)c(C(C)=O)s1 | > 4 mM (inactive)
35 | NC(=O)c1cc(Cl)c(C(N)=O)cc1Cl | > 4 mM (inactive)
36 | O=C(O)c1ccc(CN2CCCCC2)o1 | > 4 mM (inactive)
37 | COc1cc([C@@H]2c3cc4c(cc3[C@H](OC(C)=O)[C@H]3COC(=O)[C@@H]23)OCO4)cc(OC)c1OC | > 4 mM (inactive)
38 | O=C1NC2NC(=O)N(c3ccccc3)C2N1 (centres undefined) | > 4 mM (inactive)
39 | Oc1cc2c(cc1O)C1c3ccc(O)c(O)c3OCC1(O)C2 (centres undefined) | > 4 mM (inactive)
40 | CN1CCN(c2ccc(N)cc2)CC1 | > 4 mM (inactive)
41 | S=c1ccc(N2CCCCC2)n[nH]1 | > 4 mM (inactive)
42 | CC(=O)n1c(N)nc2ccccc21 | > 4 mM (inactive)
43 | Cc1nnc2sc(-c3ccco3)nn12 | > 4 mM (inactive)
44 | CC1(O)CC2C(CC1O)C2(C)C (centres undefined) | > 4 mM (inactive)
45 | CC1(C)NCCN2C(=O)CSC21 (centres undefined) | > 4 mM (inactive)
46 | CSc1nc2[nH]ncc2c(=O)[nH]1 | > 4 mM (inactive)
47 | Cn1cnc([N+](=O)[O-])c1Sc1ncnc2nc[nH]c12 | > 4 mM (inactive)
48 | O=C(c1ccccc1)c1ccccc1C(=O)N1CCCC1 | > 4 mM (inactive)
49 | O=C(c1ncc[nH]1)c1ccccc1C(=O)N1CCOCC1 | > 4 mM (inactive)
50 | O=C(O)c1ccc(-n2cncn2)cc1 | > 4 mM (inactive)

Row | Structure (SMILES) | Kd
51 | Nc1ccc2c(c1)OCO2 | > 4 mM (inactive)
52 | CCN(CC)S(=O)(=O)c1ccc(F)cc1 | > 4 mM (inactive)
53 | COc1ccc(NC2=NCC(C)S2)cc1 (centres undefined) | > 4 mM (inactive)
54 | COC(=O)CSc1ncnc2c(C)csc12 | > 4 mM (inactive)
55 | COC(=O)CSc1n[nH]c(N)n1 | > 4 mM (inactive)
56 | Oc1cnc2ccccc2c1CN1CCOCC1 | > 4 mM (inactive)
57 | CCCn1cnn2c(=O)cc(C)nc12 | > 4 mM (inactive)
58 | Cc1cc(O)cc(=O)n1CCCC(=O)O | > 4 mM (inactive)
59 | Cc1cccc(-n2c(N)cc(=O)[nH]c2=S)c1 | > 4 mM (inactive)
60 | O=C1COc2cc(O)ccc21 | > 4 mM (inactive)
61 | O=c1c[n+]([O-])c2ccccc2n1OCc1ccccc1 | > 4 mM (inactive)
62 | COC(=O)c1cc(-c2c[nH]c3ccccc23)n[nH]1 | > 4 mM (inactive)
63 | CC(=O)c1c(C)nn(CC(=O)O)c1C | > 4 mM (inactive)
64 | O=C(O)C1CCN(C(=O)c2cccs2)CC1 | > 4 mM (inactive)
65 | CC(=O)Nc1cccc(-c2nc3ccccc3c(=O)o2)c1 | > 4 mM (inactive)
66 | COC(=O)C1Cc2ccccc2N1 (centres undefined) | > 4 mM (inactive)
67 | COc1cccc2c(=O)n(CC(N)=O)ccc12 | > 4 mM (inactive)
68 | Cc1noc(C)c1C(=O)NCc1ccco1 | > 4 mM (inactive)
69 | C/C(O)=c1/sc2cc(C)nc(=N)n2c1=O | > 4 mM (inactive)
70 | Cc1noc(C)c1C(=O)Nc1cccnc1 | > 4 mM (inactive)
71 | COc1cc(C2NC(=S)NC(C)=C2C(C)=O)ccc1O (centres undefined) | > 4 mM (inactive)
72 | Cc1cc(C(=O)NC(C)c2ccncc2)cs1 (centres undefined) | > 4 mM (inactive)
73 | COc1ccc2c(c1OC)C(=O)OC2[C@H]1c2c(cc3c(c2OC)OCO3)CCN1C (some centres undefined) | > 4 mM (inactive)
74 | O=C(NCc1ccccc1)c1cnsn1 | > 4 mM (inactive)
75 | CN(C)CCNC(CC(=O)Nc1ccccc1)C(=O)O (centres undefined) | > 4 mM (inactive)

Row | Structure (SMILES) | Kd
76 | NC(=O)CSc1ccc(-c2ccccc2)nn1 | > 4 mM (inactive)
77 | Nc1cccc(S(=O)(=O)N2CCOCC2)c1 | > 4 mM (inactive)
78 | O=[N+]([O-])c1c[n+]([O-])n(-c2ccccc2)n1 | > 4 mM (inactive)
79 | O=C1NC(=O)C(c2ccccc2)C(=O)N1 | > 4 mM (inactive)
80 | COC1=CC23CCCN2CCc2cc4c(cc2C3C1O)OCO4 (centres undefined) | > 4 mM (inactive)
81 | CC(=O)N1CCN(c2ccc(O)cc2)CC1 | > 4 mM (inactive)
82 | Cc1ccc(S(=O)(=O)CCc2ccccn2)cc1 | > 4 mM (inactive)
83 | O=C1C(=O)N(CN2CCN(CCO)CC2)c2ccccc21 | > 4 mM (inactive)
84 | CC(=O)c1c(C)nc(-c2ccc(F)cc2)n1O | > 4 mM (inactive)
85 | COc1ccc(-c2cc(=O)c3c(OC)c(OC)c(OC)c(OC)c3o2)cc1 | > 4 mM (inactive)
86 | Cc1ccc(NC(=O)C2CCCNC2=O)nc1 (centres undefined) | > 4 mM (inactive)
87 | O=S1(=O)CCC2CC=CCC21 (centres undefined) | > 4 mM (inactive)
88 | Cc1nnsc1C(=O)N(C)c1ccccc1 | > 4 mM (inactive)
89 | COC(=O)c1cccnc1Oc1ccccc1 | > 4 mM (inactive)
90 | Cc1ccccc1NC(=O)C1CCC(=O)N1 (centres undefined) | > 4 mM (inactive)
91 | NC(=O)CSCc1ccc(Br)cc1 | > 4 mM (inactive)
92 | O=C(Nc1ccncc1)Nc1ccc(F)cc1F | > 4 mM (inactive)
93 | COc1nc(C#N)c(N2CCOCC2)o1 | > 4 mM (inactive)
94 | NC(=O)c1ccc(C(N)=O)cc1 | > 4 mM (inactive)
95 | Nc1nc(-c2ccccc2)ns1 | > 4 mM (inactive)
96 | O=C(CC1SC(=O)NC1=O)Nc1nccs1 (centres undefined) | > 4 mM (inactive)
97 | CC(=O)c1c(O)cc(O)cc1O | > 4 mM (inactive)
98 | O=C(CO)N/N=C/c1ccccc1F | > 4 mM (inactive)
99 | NC1=C([N+](=O)[O-])C(=O)c2ccccc21 | > 4 mM (inactive)
100 | COc1ccc2cc1Oc1ccc(cc1)C[C@H]1c3c(cc4c(c3Oc3cc5c(cc3OC)CCN(C)[C@@H]5C2)OCO4)CCN1C | > 4 mM (inactive)

Row | Structure (SMILES) | Kd
101 | NC(=O)CSc1ncnc2ccccc12 | > 4 mM (inactive)
102 | COc1cc([C@@H]2c3cc4c(cc3[C@H](OC(C)=O)[C@H]3COC(=O)[C@H]23)OCO4)cc(OC)c1OC | > 4 mM (inactive)
103 | Cc1nc2ccccc2c2c1C(=O)N(C)C2=O | > 4 mM (inactive)
104 | O=C(O)C1C(=O)NCC1c1ccccc1 (centres undefined) | > 4 mM (inactive)
105 | O=C(Nc1cccc2cccnc12)c1cccnc1 | > 4 mM (inactive)
106 | O=C(c1cccc(-n2cnnn2)c1)N1CCOCC1 | > 4 mM (inactive)
107 | NC(=O)Cn1cnc(-c2ccc(F)cc2)c1 | > 4 mM (inactive)
108 | COc1c2ccoc2c(OC)c2oc(=O)ccc12 | > 4 mM (inactive)
109 | Cc1csc(CCc2nc(C)cs2)n1 | > 4 mM (inactive)
110 | Cc1cc(=O)[nH]c(N2CCCCC2)n1 | > 4 mM (inactive)
111 | COc1cc2c(c(OC)c1OC)-c1ccc(OC)c(=O)cc1[C@@H](NC(C)=O)CC2 | > 4 mM (inactive)
112 | NC(=O)C1CCN(C(=O)c2ccco2)CC1 | > 4 mM (inactive)
113 | CN(C)N1C(=O)C2C3C=CC(O3)C2C1=O (centres undefined) | > 4 mM (inactive)
114 | C=CCCCCCCCCCCCC(O)CC(O)COC(C)=O (centres undefined) | > 4 mM (inactive)
115 | Nc1nc(=S)n2c(n1)oc1ccccc12 | > 4 mM (inactive)
116 | Cc1ccc(C(=O)N2CC(=O)NC(=O)C2)cc1 | > 4 mM (inactive)
117 | COC(=O)CSc1nnc(-c2ccc(C(=O)O)cc2)o1 | > 4 mM (inactive)
118 | CC[C@@]1(O)C[C@H](O)c2c(cc3c(c2O)C(=O)c2c(O)ccc(O)c2C3=O)[C@H]1C(=O)OC | > 4 mM (inactive)
119 | Nc1ccc(N2CCCCC2)cc1 | > 4 mM (inactive)
120 | O=C(CNC(=O)c1cccs1)NC1=NCCS1 | > 4 mM (inactive)
121 | COc1ccc2c(c1)CCCN2C(N)=O | > 4 mM (inactive)
122 | S=C(Cc1cccnc1)N1CCOCC1 | > 4 mM (inactive)
123 | C/C(N)=C/C(=O)N1CCCCC1 | > 4 mM (inactive)
124 | OCc1ccc(CN2CCOCC2)cc1 | > 4 mM (inactive)
